In patent US7790904B2, “Substituted benzimidazole derivatives” (Hoffmann-La Roche Inc., priority 2007, dated 2010):

Assays:
[1] = molecular target: T1, ligand binding domain (LBD) of human FXR (aa 193-473) (Homo sapiens, UniProt Q96RI1); assay: Luciferase transcriptional reporter gene assay (transactivation); type: cell-based; conditions: BHK21 cells transfected with pFA-FXR-LBD plus reporter plasmid; 24 hours incubation; luciferase luminescence
T1 sequence (Q96RI1 1-486): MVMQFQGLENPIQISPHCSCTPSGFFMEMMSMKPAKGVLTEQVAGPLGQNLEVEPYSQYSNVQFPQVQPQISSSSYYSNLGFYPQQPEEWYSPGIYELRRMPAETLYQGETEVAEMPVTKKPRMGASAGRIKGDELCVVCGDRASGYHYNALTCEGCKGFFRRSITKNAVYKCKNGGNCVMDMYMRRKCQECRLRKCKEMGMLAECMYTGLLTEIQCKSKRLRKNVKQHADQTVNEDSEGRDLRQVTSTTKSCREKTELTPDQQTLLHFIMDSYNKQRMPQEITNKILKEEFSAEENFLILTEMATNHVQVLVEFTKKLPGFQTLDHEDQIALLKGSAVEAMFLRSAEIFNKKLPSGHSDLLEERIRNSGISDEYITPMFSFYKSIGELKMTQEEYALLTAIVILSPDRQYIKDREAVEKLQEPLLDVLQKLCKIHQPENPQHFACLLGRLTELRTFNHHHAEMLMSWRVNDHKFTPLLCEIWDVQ
From the text: (§1) Bacterial and mammalian expression vectors were constructed to produce glutathione-s-transferase (GST) and Gal4 DNA binding domain (GAL) proteins fused to the ligand binding domain (LBD) of human FXR (aa 193-473). To accomplish this, the portions of the sequences encoding the FXR LBD were amplified by polymerase chain reaction (PCR) from a full-length clone by PCR and then subcloned into the plasmid vectors. The final clone was verified by DNA sequence analysis.
Luciferase Transcriptional Reporter Gene Assays
Baby hamster kidney cells (BHK21 ATCC CCL 10) were grown in DMEM medium containing 10% FBS at 37° C. in a 95% […]/5% CO2 atmosphere. Cells were seeded in 6-well plates at a density of 10^5 cells/well and then transfected with the pFA-FXR-LBD or expression plasmid plus a reporter plasmid. […] Six hours following transfection, the cells were harvested by trypsinization and seeded in 96-well plates at a density of […]. After 24 hours to allow attachment of cells, the medium was removed and replaced with 100 μl of phenol red-free medium containing the test substances or control ligands (final DMSO concentration: 0.4%). Following incubation of the cells for 24 hours with substances, 50 μl of the supernatant was discarded and then 50 μl of Luciferase Constant-Light Reagent (Roche Molecular Biochemicals) was added to lyse the cells and initiate the luciferase reaction. Luminescence, as a measure of luciferase activity, was detected in a Packard TopCount. Transcriptional activation in the presence of a test substance was expressed as fold-change in luminescence compared to that of cells incubated in the absence of the substance. EC50 values were calculated using the XLfit program (ID Business Solutions Ltd. UK).

[2] = molecular target: T2, FXR ligand binding domain (GST-FXR LBD fusion protein) (Homo sapiens, UniProt Q96RI1); assay: Radioligand binding assay (SPA, radioligand displacement); conditions: 40 nM GST-FXR LBD on glutathione yttrium silicate SPA beads; radioligand e.g. 20 nM 2,N-dicyclohexyl-2-[2-(2,4 dimethoxy-phenyl)-benzoimidazol-1-yl]-acetamide
T2 construct: made in house; host or cells: E. coli BL21 (pLysS)
T2 sequence (Q96RI1 193-472 isoform Q96RI1-2 limits assumed): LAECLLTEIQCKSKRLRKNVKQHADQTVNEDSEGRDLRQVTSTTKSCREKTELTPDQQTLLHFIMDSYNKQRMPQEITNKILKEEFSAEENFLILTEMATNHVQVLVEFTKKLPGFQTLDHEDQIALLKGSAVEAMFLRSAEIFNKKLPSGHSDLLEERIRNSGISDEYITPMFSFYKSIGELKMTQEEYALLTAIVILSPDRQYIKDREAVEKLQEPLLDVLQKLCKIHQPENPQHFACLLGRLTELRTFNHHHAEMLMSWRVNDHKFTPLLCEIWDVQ
Experimental: The following tests were carried out in order to determine the activity of the compounds of formula (I). Background information on the binding assay can be found in: Nichols J S et al. “Development of a scintillation proximity assay for peroxisome proliferator-activated receptor gamma ligand binding domain”, (1998) Anal. Biochem. 257: 112-119.
as §1
The induction, expression, and subsequent purification of GST-LBD fusion protein was performed in E. coli strain BL21 (pLysS) cells by standard methods (Current Protocols in Molecular Biology, Wiley Press, ed. Ausubel et al.).
Radioligand Binding Assay
Binding of test substances to the FXR ligand binding domain was assessed in a radioligand displacement assay. The assay was performed in a buffer consisting of 50 mM Hepes, pH 7.4, 10 mM NaCl, 5 mM MgCl2, 0.01% CHAPS. For each reaction well in a 96-well plate, 40 nM of GST-FXR LBD fusion protein was bound to 10 μg glutathione ytrium silicate SPA beads (PharmaciaAmersham) in a final volume of 50 μl by shaking. A radioligand (e.g. 20 nM of 2,N-dicyclohexyl-2-[2-(2,4 dimethoxy-phenyl)-benzoimidazol-1-yl]-acetamide) and test compounds were added, and scintillation proximity counting was performed. All binding assays were performed in 96-well plates and the amount of bound ligand was measured on a Packard TopCount using OptiPlates (Packard). Dose response curves were performed within a range of test compound concentrations from 6×10^−9 M to 2.5×10^−5 M and IC50s were calculated.

## Cc1cccc(OCc2nc3cc(F)ccc3n2C(C(=O)NC2CCCCC2)C2CCCCC2)c1C (stereo not drawn) [Example 49, 2,N-Dicyclohexyl-2-[2-(2,3-dimethyl-phenoxymethyl)-5-fluoro-benzoimidazol-1-yl]-acetamide]
[1]
  EC50: 95 nM
[2]
  IC50: 38 nM

## O=C(NC1CCCCC1)C(C1CCCCC1)n1c(COc2ccccn2)nc2cc(F)ccc21 (stereo not drawn) [Example 56, 2,N-Dicyclohexyl-2-[5-fluoro-2-(pyridin-2-yloxymethyl)-benzoimidazol-1-yl]-acetamide]
[1]
  EC50: 982 nM
[2]
  IC50: 105 nM

## Cc1cc(Cl)ccc1O[C@H](C)c1nc2ccc(F)cc2n1[C@H](C(=O)NC1CCCCC1)C1CCCCC1 [Example 31, (S)-2-{2-[(R)-1-(4-Chloro-2-methyl-phenoxy)-ethyl]-6-fluoro-benzoimidazol-1-yl}-2,N-dicyclohexyl-acetamide]
[1]
  EC50: 254 nM
[2]
  IC50: 118 nM
